In patent publication US20180078561A1 (LAM Therapeutics, Inc., priority 2015, published 2018):
“Also recorded” adds a separate entry of the source. Read-outs that look alike come from different tables or passages of the source.

Legend:
[1] = system: peripheral blood mononuclear cells; settings: Wada et al., Blood 109, 2007; cited from earlier work
[2] = system: (TSC2−/−, p53−/−) MEF; assay: 10-point dose response, cell viability (CellTiter-Glo); type: cell-based; settings: Mus musculus; cell type MEF TSC2 −/− p53 −/−; 72 h; average of two experiments
[3] = system: MEF-EV (TSC2−/− MEF); assay: as above; type: cell-based; settings: Mus musculus; cell type MEF TSC2 −/− (MEF-EV); 72 h; average of two experiments
Description: TSC2 null cells have constitutively active mTOR. Briefly, MEF cells derived from TSC2−/− knockout mouse embryos (Onda et al., J. Clin. Invest. 104(6):687-95, 1999) were infected with a retrovirus vector encoding the hygromycin antibiotic resistance gene (MEF-EV) or the same retrovirus vector also encoding TSC2 (MEF-TSC2). The MEF-EV and MEF-TSC2 line were then established by hygromycin selection.
See e.g., Zhang et al. J. Clin. Invest. 112, 1223-33, 2003. (2) ELT3-EV and ELT3-TSC2 lines were established from the ELT3 rat tumor cell line. The ELT3 line is an established rat tumor model for LAM/TSC. See e.g., Howe et al., Am. J. Path. 146, 1568-79, 1995. These cells harbor an inactivating mutation in TSC2, which leads to constitutive activation of the mTOR pathway. To develop an isogenic pair of cells ELT3 cells were infected with a retrovirus vector encoding the hygromycin antibiotic resistance gene (ELT3-EV) or the same retrovirus vector also encoding TSC2 (ELT3-TSC2). The ELT3-EV and ELT3-TSC2 line were then established by hygromycin selection. […] The cells were infected with amphotropic retrovirus LXSN16E6E7 that encodes the HPV16 E6 and E7 open reading frames and neomycin resistance cassette. […]
IC50 values were then calculated from the dose response curves using XLFIT (IDBS).

[4] = system: TRI-AML102 (TSC2 null AML); assay: as above; type: cell-based; settings: Homo sapiens; cell type AML (head: AML TSC2 +/− p53 −/−); 72 h; average of two experiments
Description: (§2) (2) ELT3-EV and ELT3-TSC2 lines were established from the ELT3 rat tumor cell line. […] To develop an isogenic pair of cells ELT3 cells were infected with a retrovirus vector encoding the hygromycin antibiotic resistance gene (ELT3-EV) or the same retrovirus vector also encoding TSC2 (ELT3-TSC2). The ELT3-EV and ELT3-TSC2 line were then established by hygromycin selection. […] The cells were infected with amphotropic retrovirus LXSN16E6E7 that encodes the HPV16 E6 and E7 open reading frames and neomycin resistance cassette. Cells were expanded and neomycin-selected. Individual clones were isolated and frozen down. The coding sequence for the human Telomerase gene (hTERT) with hygromycin resistance cassette (pLXSN hTERT-hyg plasmid) was stably expressed into a TSC2^−/− confirmed E6E7 AML clone using Fugene6 transfection reagent (Roche Applied Science, Indianapolis, Ind.). TRI-AML102 was generated by stable incorporation of a control zeomycin selection plasmid (pcDNA3.1-zeo), while TRI-AML103 expresses the human TSC2 cDNA pcDNA3.1-zeo plasmid.

[5] = system: 122 human cancer cell lines; assay: cancer cell line screen for sensitivity to apilimod; type: cell-based; settings: sensitive if IC50 less than 500 nM
Description: (§1) 35 cell lines were identified as sensitive to apilimod-induced cytotoxicity.
The most sensitive of those tested were non-Hodgkin's Lymphoma (NHL) cell lines. […] NHL represents a diverse group of hematopoietic malignancies that vary in severity, with subtypes ranging from slow growing to aggressive. Subtypes of NHL include diffuse large B cell lymphoma (DLBCL), Burkitt's lymphoma, mantle lymphoma, and follicular B cell lymphoma. DLBCL is divided into two subtypes, GCB and ABC, based on gene expression and cell of origin. The GCB are germinal center B cell type, arising from normal germinal center B cells, and the ABC are activated B cell type, arising from post-germinal center B cells in the process of differentiating into plasma cells.

[6] = system: U937; settings: WO 2006/128129; cited from earlier work
[7] = system: cancer cell line; assay: vacuolization of cells; type: cell-based; settings: for vacuolation in cells: at concentrations comparable to apilimod
Description: PIKfyve is associated with the cytosolic leaflet of early endosomes and its activity is required for endomembrane homeostasis, endolysosomal function and proper retrograde transport from the endosome to the trans-Golgi network. Introduction of a kinase dead mutant into cells induces a swollen vacuole phenotype that can be rescued by the injection of PI(3,5)P2. Inhibition of PIKfyve by pharmacological methods as well as RNAi also produces swollen vacuoles and disruption of endomembrane dynamics.
Introduction of a kinase dead mutant into cells induces a swollen vacuole phenotype that can be rescued by the injection of PI(3,5)P2. Inhibition of PIKfyve by pharmacological methods as well as RNAi also produces swollen vacuoles and disruption of endomembrane dynamics.

[8] = for Apilimod Ave. Plasma Conc.: Day 7; for sustained blood concentration of apilimod: measured at 24 h
[9] = system: diffuse large B cell lymphoma cells; assay: Apotox-Glo Triplex assay; type: cell-based; settings: 48 hours after addition
Description: Apoptosis was quantified and distinguished from necrosis using the Apotox-Glo Triplex assay (Promega, Inc.) according to the manufacturer's instructions. In this assay, viability, apoptosis, and necrosis are assessed simultaneously using three different markers (GF-AFC, Caspase-3/7, and bis-AAF-R110, respectively).

[10] = system: ELT3-EV; assay: 10-point dose response, cell viability (CellTiter-Glo); type: cell-based; settings: Rattus norvegicus; cell type ELT3 (ELT3-EV); 72 h; average of two experiments; read-out: IC50 TSC2 −/−
Description: as §2

[11] = system: THP-1; settings: WO 2006/128129; cited from earlier work
[12] = system: H4 neuroglioma cell line; assay: Cyto-ID Autophagy detection; type: cell-based, Human; settings: 72 hours of treatment
Description: Autophagy was quantified using the Cyto-ID Autophagy detection kit (Enzo) according to manufacturer's directions.

[13] = system: HELA; settings: WO 2006/128129; cited from earlier work
[14] = system: SUDHL-4 cells; assay: drug library screen with and without apilimod, cell viability; type: cell-based; settings: Homo sapiens, SU-DHL-4
Description: A manually curated library of 93 drugs including both FDA approved and unapproved drugs was used in the screen.
Ibrutinib is an FDA-approved drug targeting B-cell malignancies and indicated for monotherapy in treating mantle cell lymphoma and chronic lymphocytic leukemia. It is also known as PCI-32765 and marketed under the trade name Imbruvica™. […] BTK is a key mediator of at least three critical B-cell pro-survival mechanisms occurring in parallel-regulation of apoptosis, cell adhesion and cell migration and homing.

[15] = system: H4; assay: cell viability (CellTiterGlo), apilimod sensitivity; type: cell-based; settings: Homo sapiens, Human neuroglioma
Description: as §1

[16] = system: Jurkat; settings: WO 2006/128129; cited from earlier work
[17] = system: Normal lung fibroblasts; assay: cytotoxicity on normal cells; type: cell-based; settings: concentrations as high as 10 micromolar
Description: as §1

[18] = system: Yulac614 melanoma cells; assay: drug combination screen and validation, cell viability
Description: Yulac614 (resistant to vemurafenib, see Choi et al. 2014) cells were used to conduct drug combination studies to identify synergistic drug pairs. A library of 500 unapproved drugs was used to perform drug screening in the presence or absence of vemurafenib (at IC20=6 μM).
30 nL of library drug (at 1000× concentration) was spotted into appropriate wells of a 384 black walled plate (Corning #3712). Duplicate drug-spotted plates were prepared and to them were added Yulac614 cells which were pre-treated with either DMSO (0.01% final) or vemurafenib (6 μM final). The Yulac614 cells were grown in OptiMEM (Life Technologies) containing 5% FBS (Sigma Aldrich F2442-500 mL, Lot 12D370) Penicillin/Streptomycin (100×) (CellGro Ref 30-002). […]
Plates were incubated for 72 h at 37° C. under an atmosphere of 5% CO2 in a humidified incubator. Cell viability was determined with CellTiter-Glo® luminescence assay (Promega) as per the manufacturer's instructions. Viability was expressed as a percentage of control (DMSO) cells. […]
50 uL of the 10 point drug dilution series (at 2× concentration) was added to the cells. […] 72 hours after compound addition relative cell viability was determined by CellTiter-Glo® luminescence assay (Promega) as per the manufacturer's instructions, and values were expressed as a percentage relative to vehicle (DMSO) treated control cells (set to 100%).

[19] = biological target: T1, PIKfyve (Homo sapiens, UniProt Q9Y2I7); assay: dissociation constant (Kd) study; type: binding; settings: 0.05-3000 nM, duplicate
T1 construct: purchased DiscoveRx, Fremont, Calif
Description: A dissociation constant (Kd) study was performed using the 3 compounds at increasing concentrations (0.05-3000 nM) against PIKfyve.

[20] = system: WSU-DLCL2 cells; assay: anti-proliferative activity normalized to apilimod (plasma concentration factors); type: cell-based, Human; settings: data from WSU-DLCL2 cells
[21] = human plasma profile of apilimod and metabolites; type: in vivo; settings: oral 105 mg doses of apilimod free base, given 10 hr apart
[22] = plasma protein binding; type: in vitro ADME; settings: dog plasma proteins
[23] = plasma protein binding; type: in vitro ADME; settings: human plasma proteins
[24] = plasma protein binding; type: in vitro ADME; settings: rat plasma proteins

T1 sequence (Q9Y2I7 whole entry): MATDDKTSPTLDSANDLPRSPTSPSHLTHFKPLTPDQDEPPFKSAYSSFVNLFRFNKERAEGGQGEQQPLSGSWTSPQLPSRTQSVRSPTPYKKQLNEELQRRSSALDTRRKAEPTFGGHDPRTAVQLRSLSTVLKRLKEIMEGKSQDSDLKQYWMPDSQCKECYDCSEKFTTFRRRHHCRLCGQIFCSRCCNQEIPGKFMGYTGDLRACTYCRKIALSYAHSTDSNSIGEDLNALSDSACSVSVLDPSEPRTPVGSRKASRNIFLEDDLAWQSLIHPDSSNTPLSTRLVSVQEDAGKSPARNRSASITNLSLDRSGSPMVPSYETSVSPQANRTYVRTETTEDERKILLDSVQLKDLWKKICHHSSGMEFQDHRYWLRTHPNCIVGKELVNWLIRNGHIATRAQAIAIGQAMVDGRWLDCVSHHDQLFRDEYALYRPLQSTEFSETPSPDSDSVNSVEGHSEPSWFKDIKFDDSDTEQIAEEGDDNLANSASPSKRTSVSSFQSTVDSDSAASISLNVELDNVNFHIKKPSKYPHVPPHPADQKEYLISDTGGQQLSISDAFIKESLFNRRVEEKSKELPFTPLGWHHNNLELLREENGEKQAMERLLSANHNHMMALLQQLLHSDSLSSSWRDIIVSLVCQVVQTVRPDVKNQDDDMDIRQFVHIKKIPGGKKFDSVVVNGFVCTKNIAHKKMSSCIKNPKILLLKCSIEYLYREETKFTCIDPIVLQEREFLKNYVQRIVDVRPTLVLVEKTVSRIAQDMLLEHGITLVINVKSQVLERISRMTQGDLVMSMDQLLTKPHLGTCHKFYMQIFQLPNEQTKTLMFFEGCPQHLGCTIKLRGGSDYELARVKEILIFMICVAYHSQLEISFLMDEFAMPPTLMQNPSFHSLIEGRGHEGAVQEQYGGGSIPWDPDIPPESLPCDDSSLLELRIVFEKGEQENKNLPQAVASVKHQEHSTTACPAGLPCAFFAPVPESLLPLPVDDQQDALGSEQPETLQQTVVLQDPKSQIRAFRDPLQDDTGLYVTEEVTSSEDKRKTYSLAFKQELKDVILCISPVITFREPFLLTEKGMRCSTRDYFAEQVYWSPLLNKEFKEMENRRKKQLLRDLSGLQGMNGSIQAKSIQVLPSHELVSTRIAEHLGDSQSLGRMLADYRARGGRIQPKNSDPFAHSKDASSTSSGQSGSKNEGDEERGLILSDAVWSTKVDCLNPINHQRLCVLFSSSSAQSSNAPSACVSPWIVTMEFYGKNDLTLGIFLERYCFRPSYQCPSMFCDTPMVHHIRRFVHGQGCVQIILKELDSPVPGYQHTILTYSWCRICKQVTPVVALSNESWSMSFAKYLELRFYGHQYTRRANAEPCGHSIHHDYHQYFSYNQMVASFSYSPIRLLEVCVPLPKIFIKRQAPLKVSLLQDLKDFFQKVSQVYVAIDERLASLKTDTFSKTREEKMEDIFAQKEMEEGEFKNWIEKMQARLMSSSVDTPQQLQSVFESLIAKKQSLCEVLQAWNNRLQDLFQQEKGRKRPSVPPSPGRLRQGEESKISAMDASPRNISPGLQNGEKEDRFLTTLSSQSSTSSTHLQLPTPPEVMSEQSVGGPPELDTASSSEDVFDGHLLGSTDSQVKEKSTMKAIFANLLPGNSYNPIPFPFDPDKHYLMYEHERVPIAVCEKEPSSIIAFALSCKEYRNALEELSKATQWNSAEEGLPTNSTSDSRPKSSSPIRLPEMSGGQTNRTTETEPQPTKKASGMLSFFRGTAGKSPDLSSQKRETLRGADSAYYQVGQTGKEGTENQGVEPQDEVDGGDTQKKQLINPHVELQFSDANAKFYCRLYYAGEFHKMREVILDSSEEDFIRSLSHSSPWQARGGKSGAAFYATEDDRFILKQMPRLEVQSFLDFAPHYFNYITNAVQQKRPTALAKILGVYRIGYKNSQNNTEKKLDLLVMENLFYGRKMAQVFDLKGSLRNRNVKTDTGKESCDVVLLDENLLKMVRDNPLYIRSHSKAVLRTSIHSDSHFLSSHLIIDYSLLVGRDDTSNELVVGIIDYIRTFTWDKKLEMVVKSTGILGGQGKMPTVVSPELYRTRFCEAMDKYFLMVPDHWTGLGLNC

## Cc1cccc(/C=N/Nc2cc(N3CCOCC3)nc(OCCc3ccccn3)n2)c1 [apilimod]
[1]
  cytotoxicity: not cytotoxic
[2]
  IC50: 28.8 nM
[3]
  IC50: 19.7 nM
[4]
  IC50: 117 nM
[5]; non-Hodgkin's Lymphoma cell lines
  NHL cell lines tested that were sensitive to apilimod: over 50%
[5]; of 122 human cancer cell lines
  cell lines identified as sensitive to apilimod-induced cytotoxicity: 35 cell lines
[6]
  cytotoxicity: not cytotoxic
[7]; as low as
  apilimod concentration at which vacuole formation in cells was observed: 20 nM
[7]; live cells, 500 nM, 24 h
  vacuolization: induces vacuolization
[8]; Group 3: S.C. pump ~15 mg/kg/d (DRW) + I.P. 30 mg/kg (MC)
  Apilimod Ave. Plasma Conc.: 0.682 µM
[8]; Group 7: S.C. pump ~15 mg/kg/d (DRW) + I.P. 30 mg/kg (DRD)
  Apilimod Ave. Plasma Conc.: 0.613 µM
[8]; Group 8: S.C. pump ~30 mg/kg/d (DRW) + I.P. 30 mg/kg (DRD)
  Apilimod Ave. Plasma Conc.: 1.76 µM
[8]; Group 9: S.C. pump ~15 mg/kg/d (DRW) only
  Apilimod Ave. Plasma Conc.: 0.755 µM
[8]; Group 10: S.C. pump ~30 mg/kg/d (DRW) only
  Apilimod Ave. Plasma Conc.: 1.87 µM
[8]; S.C. osmotic mini-pump 15 mg/kg/day (bis-mesylate salt)
  sustained blood concentration of apilimod: > 0.5 µM
[8]; S.C. osmotic mini-pump 30 mg/kg/day (bis-mesylate salt)
  sustained blood concentration of apilimod: > 1 µM
[9]
  apoptosis (Caspase-3/7 marker): increased apoptosis
[10]
  IC50: 13.7 nM
[11]
  cytotoxicity: not cytotoxic
[12]
  autophagy (autophagic vacuoles): induced autophagy in a dose-dependent manner
[13]
  cytotoxicity: not cytotoxic
[14]
  IC20: 10 nM
[15]
  IC50: 250 to 300 nM
[16]
  cytotoxicity: not cytotoxic
[17]
  apilimod-induced cytotoxicity: not cytotoxic; also recorded: insensitive
[18]
  IC20: 500 nM

## Cc1cccc(/C=N/Nc2cc(N3CCOCC3)nc(OCC(O)c3ccccn3)n2)c1 (stereo not shown) [STA-5908]
[19]
  Kd: 0.09 nM
[7]
  vacuolation in cells: cause vacuolation in cells at comparable concentrations
[20]
  plasma concentration factor (for Apilimod Equivalent Concentrations): 0.68
[21]
  mean Cmax relative to apilimod: somewhat less than half

## Cc1cccc(/C=N/Nc2cc(N3CCOCC3)nc(OCCc3cccc[n+]3[O-])n2)c1 [STA-5944]
[19]
  Kd: 0.061 nM
[7]
  vacuolation in cells: cause vacuolation in cells at comparable concentrations
[20]
  plasma concentration factor (for Apilimod Equivalent Concentrations): 0.52
[21]
  mean Cmax relative to apilimod: somewhat less than half

## Cc1cccc(/C=N/Nc2cc(N3CCOCC3)nc(OCCc3ccccn3)n2)c1 [apilimod free base]
[22]
  fraction unbound: < 0.01
[23]
  fraction unbound: < 0.01
[24]
  fraction unbound: < 0.01

## Cc1cccc(/C=N/Nc2cc(N3CCOCC3)nc(OCC(O)c3cccc[n+]3[O-])n2)c1 (stereo not shown) [STA-6048]
[19]
  Kd: 0.088 nM
[7]
  vacuolation in cells: cause vacuolation in cells at comparable concentrations
[20]
  plasma concentration factor (for Apilimod Equivalent Concentrations): 0.26
